Data set [1] concerns B. cenocepacia K56-2. The data set is classed as cell-based, Burkholderia cenocepacia. Particulars: 18 h.
The subject of data set [2] is B. lata BCC6. The data set is classed as cell-based, Burkholderia lata.
The test system of data set [3] is B. contaminans MF16. The data set is classed as cell-based, Burkholderia contaminans.
In data set [4] the test system is B. contaminans FFH-2050MA. The data set is classed as cell-based, Burkholderia contaminans.
Data set [5] deals with B. dolosa CEP021. The data set is classed as cell-based, Burkholderia dolosa.
For data set [6], the system named is B. multivorans ATCC17616. The data set is classed as cell-based, Burkholderia multivorans.
Data set [7] concerns B. cenocepacia 140485. The data set is classed as cell-based, Burkholderia cenocepacia.
Data set [8] has as its system B. ubonensis LMG 20358. The data set is classed as cell-based, Burkholderia ubonensis.
The test system of data set [9] is B. contaminans FFH-4004. The data set is classed as cell-based, Burkholderia contaminans.
Data set [10] relates to C. elegans DH26. Conditions: for Percent survival of C. elegans: 24 h; for Survival100/MIC Ratio: highest concentration with 100 percent survival divided by the compound's MIC.
Data set [11] relates to B. cenocepacia K56-2. The experiment in a line: Persister frequency assay. Particulars: 24 h.
In data set [12] the test system is B. cenocepacia K56-2 persister cells. The experiment in a line: Time kill of persister cells generated with ciprofloxacin. The data set is classed as cell-based, Burkholderia cenocepacia. Particulars: in PBS, 3 h; MS-40S/MS-40 2× and 4× MIC, ciprofloxacin 5× MIC.
Where [13] appears, read: B. cenocepacia K56-2, CAMHB, 37 °C.
[14] abbreviates: Burkholderia contaminans, FFH2050MA.
Where [15] appears, read: Burkholderia multivorans, ATCC17616.
[16] abbreviates: Burkholderia cenocepacia, 140485.
Where [17] appears, read: Burkholderia ubonensis, LMG20358.
Setting [18] is: Burkholderia contaminans, FFH4004.

Converted amounts (≈) assume the structure as drawn. Read-outs that look alike come from different tables or passages of the source. A value given as a limit tells only on which side of the number the result lay.

For the compound `CC[P+](CC)(CC)[Au-][S]C1OC(CO)C(O)C(O)C1O` (mixture of isomers) [WB-16-EO9899], the MIC (usually the least concentration at which growth counts as inhibited) was more than 128 mg/L in data set [1] (setting [13]); 128 mg/L in data set [2] (B. lata BCC6); 128 mg/L in data set [3] (B. contaminans MF16); 128 mg/L in data set [4] (B. contaminans FFH-2050MA); more than 128 mg/L in data set [5] (B. dolosa CEP021); 128 mg/L in data set [6] (B. multivorans ATCC17616). In addition, the MIC is 32 mg/L in [7] (B. cenocepacia 140485), more than 128 mg/L in data set [8] (B. ubonensis LMG 20358) and more than 128 mg/L in data set [9] (B. contaminans FFH-4004).
Regarding `C[P+](C)(C)[Au-][S]CC(O)CO` (racemic) [WB-19-HL4171], the minimal inhibitory concentration (MIC) in data set [1] (setting [13]) came out at 32 mg/L; in data set [2] (B. lata BCC6), 32 mg/L; in data set [3] (B. contaminans MF16) it was 64 mg/L; in [4] (B. contaminans FFH-2050MA), 32 mg/L; in data set [5] (B. dolosa CEP021), 64 mg/L; in [6] (B. multivorans ATCC17616), 32 mg/L. Moreover, the MIC in data set [7] (B. cenocepacia 140485) was 16 mg/L; in data set [8] (B. ubonensis LMG 20358), more than 128 mg/L; in data set [9] (B. contaminans FFH-4004) it was 32 mg/L.
Turning to `CC(C)(O/N=C(\C(=O)N[C@@H]1C(=O)N2C(C(=O)[O-])=C(C[n+]3ccccc3)CS[C@H]12)c1csc(N)n1)C(=O)O` [CAZ, ceftazidime, reference compound], the MIC was 32 mg/L (≈ 58.5 µM) in data set [1] (Burkholderia cenocepacia); 64 mg/L (≈ 117 µM) in data set [2] (Burkholderia lata, BCC6); 32 mg/L (≈ 58.5 µM) in [3] (Burkholderia contaminans, MF16); 8 mg/L (≈ 14.6 µM) in data set [4] (setting [14]); 16 mg/L (≈ 29.3 µM) in data set [5] (Burkholderia dolosa, CEP021); 16 mg/L (≈ 29.3 µM) in [6] (setting [15]). The figures for the MIC in [7] (setting [16]), in data set [8] (setting [17]) and in data set [9] (setting [18]) were 8 mg/L (≈ 14.6 µM), 16 mg/L (≈ 29.3 µM) and 8 mg/L (≈ 14.6 µM), respectively.
`C[C@@H](O)[C@H]1C(=O)N2C(C(=O)O)=C(S[C@@H]3CN[C@H](C(=O)N(C)C)C3)[C@H](C)[C@H]12` [MEM, meropenem, reference compound]: the MIC turned out to be 16 mg/L (≈ 41.7 µM) in [1] (Burkholderia cenocepacia); 4 mg/L (≈ 10.4 µM) in data set [2] (Burkholderia lata, BCC6); 8 mg/L (≈ 20.9 µM) in data set [3] (Burkholderia contaminans, MF16); 4 mg/L (≈ 10.4 µM) in [4] (setting [14]); 8 mg/L (≈ 20.9 µM) in data set [5] (Burkholderia dolosa, CEP021); 4 mg/L (≈ 10.4 µM) in data set [6] (setting [15]). The MIC in [7] (setting [16]) was 16 mg/L (≈ 41.7 µM); in data set [8] (setting [17]) it was 16 mg/L (≈ 41.7 µM); in [9] (setting [18]) it was 8 mg/L (≈ 20.9 µM). Further, the “Percent survival of C. elegans” value came out at 100% in data set [10] (4 μg/mL); 100% in [10] (8 μg/mL); 100% in [10] (16 μg/mL); 100% in data set [10] (32 μg/mL); 100% in data set [10] (64 μg/mL); 97.4% in data set [10] (128 μg/mL). For the same compound, the “Percent survival of C. elegans” value in data set [10] (256 μg/mL) is given as 93.2%. The “Survival100/MIC Ratio” value in data set [10] is given as 4; in data set [10] (listed as meropenem) it was “four”. Also, the “persister frequency (percent survival)” value is “low amount of persisters” in [11] (5× MIC); “low amount of persisters” in data set [11] (10× MIC); 5–7% in data set [11] (5× and 10× MIC tested, concentration not told apart).
For the compound `NC[C@H]1O[C@H](O[C@H]2[C@H](O)[C@@H](O[C@H]3O[C@H](CO)[C@@H](O)[C@H](N)[C@H]3O)[C@H](N)C[C@@H]2N)[C@H](N)C[C@@H]1O` [TOB, tobramycin, reference compound], the MIC in data set [1] (Burkholderia cenocepacia) came out at 512 mg/L (≈ 1100 µM); in [2] (Burkholderia lata, BCC6) it was 128 mg/L (≈ 274 µM); in data set [3] (Burkholderia contaminans, MF16), 32 mg/L (≈ 68.4 µM); in [4] (setting [14]), 128 mg/L (≈ 274 µM); in [5] (Burkholderia dolosa, CEP021), 128 mg/L (≈ 274 µM); in [6] (setting [15]), 64 mg/L (≈ 137 µM). Further, the MIC in data set [7] (setting [16]) stood at 128 mg/L (≈ 274 µM); in data set [8] (setting [17]), 128 mg/L (≈ 274 µM); in data set [9] (setting [18]), 64 mg/L (≈ 137 µM).
For the compound `CC[P+](CC)(CC)[Au-][S][C@@H]1O[C@H](CO)[C@@H](O)[C@H](O)[C@H]1O` [WB-18-FI3683], the MIC in data set [1] (setting [13]) is more than 128 mg/L; in data set [2] (B. lata BCC6), 128 mg/L; in [3] (B. contaminans MF16), 128 mg/L; in data set [4] (B. contaminans FFH-2050MA), 128 mg/L; in data set [5] (B. dolosa CEP021), more than 128 mg/L; in data set [6] (B. multivorans ATCC17616), 128 mg/L. For the same compound, the MIC in data set [7] (B. cenocepacia 140485) was 64 mg/L; in data set [8] (B. ubonensis LMG 20358), more than 128 mg/L; in data set [9] (B. contaminans FFH-4004) it was more than 128 mg/L.
Take `CC(=O)N[C@@H]1[C@@H](O)[C@H](O)[C@@H](CO)O[C@H]1[S][Au-][P+](C)(C)C` [WB-19-HB2664]: the MIC is more than 128 mg/L in data set [1] (setting [13]); 128 mg/L in [2] (B. lata BCC6); 128 mg/L in data set [3] (B. contaminans MF16); 64 mg/L in data set [4] (B. contaminans FFH-2050MA); more than 128 mg/L in [5] (B. dolosa CEP021); 128 mg/L in [6] (B. multivorans ATCC17616). The MIC in data set [7] (B. cenocepacia 140485), in [8] (B. ubonensis LMG 20358) and in [9] (B. contaminans FFH-4004) was 128 mg/L each time.
For `CC(=O)OC[C@H]1O[C@@H]([S][Au-][P+](C)(C)C)[C@H](OC(C)=O)[C@@H](OC(C)=O)[C@@H]1OC(C)=O` [WB-19-HG5899], the MIC in data set [1] (setting [13]) is more than 128 mg/L; in [2] (B. lata BCC6), 128 mg/L; in [3] (B. contaminans MF16) it was 128 mg/L; in [4] (B. contaminans FFH-2050MA), 64 mg/L; in data set [5] (B. dolosa CEP021), more than 128 mg/L; in data set [6] (B. multivorans ATCC17616) it was 128 mg/L. Besides, the MIC in [7] (B. cenocepacia 140485), in data set [8] (B. ubonensis LMG 20358) and in data set [9] (B. contaminans FFH-4004) was 128 mg/L in each case.
Take `CP(C)C.CP(C)C.F[P-](F)(F)(F)(F)F.[Au+]` [WB-19-HL4121a]: the MIC in [1] (setting [13]) came to 128 mg/L; in data set [2] (B. lata BCC6), 32 mg/L; in data set [3] (B. contaminans MF16), 32 mg/L; in [4] (B. contaminans FFH-2050MA), 32 mg/L; in [5] (B. dolosa CEP021), 128 mg/L; in data set [6] (B. multivorans ATCC17616), 64 mg/L. For the same compound, the values for the MIC in [7] (B. cenocepacia 140485), in [8] (B. ubonensis LMG 20358) and in data set [9] (B. contaminans FFH-4004) were 32 mg/L, 128 mg/L and 64 mg/L, respectively.
Regarding `C[P+](C)(C)[Au-][S]CCCO` [WB-19-HL4172], the MIC in data set [1] (setting [13]) was 32 mg/L; in [2] (B. lata BCC6), 16 mg/L; in data set [3] (B. contaminans MF16), 32 mg/L; in [4] (B. contaminans FFH-2050MA), 16 mg/L; in [5] (B. dolosa CEP021), 32 mg/L; in data set [6] (B. multivorans ATCC17616), 32 mg/L. In addition, the MIC in data set [7] (B. cenocepacia 140485), in data set [8] (B. ubonensis LMG 20358) and in [9] (B. contaminans FFH-4004) was 32 mg/L throughout.
With `C[P+](C)(C)[Au-][S]CCN` [WB-19-HL4181], the MIC in data set [1] (setting [13]) amounted to 32 mg/L; in [2] (B. lata BCC6) it was 16 mg/L; in data set [3] (B. contaminans MF16), 64 mg/L; in [4] (B. contaminans FFH-2050MA), 32 mg/L; in data set [5] (B. dolosa CEP021), 64 mg/L; in [6] (B. multivorans ATCC17616), 32 mg/L. The MIC in [7] (B. cenocepacia 140485), in data set [8] (B. ubonensis LMG 20358) and in data set [9] (B. contaminans FFH-4004) was 32 mg/L each time.
With `O=C(O)c1cn(C2CC2)c2cc(N3CCNCC3)c(F)cc2c1=O` [ciprofloxacin, reference compound], the “killing of ciprofloxacin-generated persister cells” value in data set [12] is given as “not killed”.

These data come from article PMC8697972, “New Auranofin Analogs with Antibacterial Properties against Burkholderia Clinical Isolates” (Antibiotics, 2021).
